Among the data in US10889592B2, “Thienopyrazine carboxamides as ubiquitin-specific protease inhibitors” (VALO EARLY DISCOVERY, INC., priority 2016, dated 2021) are IC50 values, retold here.

Experiment [1] deals with USP28 (Homo sapiens (Human), UniProt Q96RU2). Briefly: Ubiquitin-Rhodamine 110 Assay for USP28 Activity. As to conditions: Ub-Rh110 substrate 25 nM, fluorescence readout. In kind it is biochemical. The protocol:
Each assay was performed in a final volume of 20 μL in assay buffer containing 20 mM Tris-HCl (pH 8.0, (1M Tris-HCl, pH 8.0 solution; Corning 46-031-CM)), 2 mM CaCl2) (1M Calcium Chloride solution; Sigma #21114) 2 mM BME (2-Mercaptoethanol; Sigma 63689-25ML-F), 0.01% Prionex (0.22 μM filtered, Sigma # G-0411), and 0.01% Triton X-100. Stock compound solutions were stored at −20° C. as 10 mM in DMSO. Up to 1 month prior to the assay, 2 mM test compounds were pre-dispensed into assay plates (Black, low volume; Corning #3820) and frozen at −20° C. Prestamped assay plates were allowed to come to room temperature on the day of the assay. For the screen, 100 nL of 2 mM was pre-dispensed for a final screening concentration of 10 μM (DMSO(fc)=0.5%). Enzyme (USP28, construct USP28 (USP28-5(1-1077)-TEV-6*His; LifeSensors) concentration and incubation times were optimized for the maximal signal-to-background while maintaining initial velocity conditions at a fixed substrate concentration. The final concentration of the enzyme in the assay was 400 pM. Final substrate (Ub-Rh110; Ubiquitin-Rhodamine 110, R&D Systems # U-555) concentration was 25 nM with [Ub-Rh110]<<Km. 10 μL of 2× enzyme was added to assay plates (pre-stamped with compound) either simultaneously with 2×Ub-Rh110 or preincubated with USP28 40 minutes prior to the addition of 10 μL of 2×Ub-Rh110 to compound plates. Plates were incubated stacked for 90 minutes at room temperature before fluorescence was read on the Envision (Excitation at 485 nm and Emission at 535 nm; Perkin Elmer) or on the PheraSTAR (Excitation at 485 nm and Emission at 535 nm; BMG Labtech).
For follow-up studies, Each assay was performed in a final volume of 15 μL in assay buffer containing 20 mM Tris-HCl (pH 8.0, (1M Tris-HCl, pH 8.0 solution; Corning 46-031-CM)), 3 mM BME (2-Mercaptoethanol; Sigma 63689-25ML-F), 0.03% BGG ([…] filtered, Sigma, G7516-25G), and 0.01% Triton X-100 (Sigma, T9284-10L). Nanoliter quantities of either an 8-point or 10-point, 3-fold serial dilution in DMSO was pre-dispensed into assay plates (Perkin Elmer, ProxiPlate-384 F Plus, #) for a final test concentration of either 25 μM to 11 nM or 25 μM to 1.3 nM, respectively. Enzyme USP28, construct USP28 (USP28-5(1-1077)-TEV-6*His; LifeSensors) concentration and incubation times were optimized for the maximal signal-to-background while maintaining initial velocity conditions at a fixed substrate concentration. The final concentration of the enzyme in the assay was 75 pM. Final substrate (Ub-Rh110; Ubiquitin-Rhodamine 110, R&D Systems # U-555) concentration was 25 nM with [Ub-Rh110]<<Km. 5 μL of 2× enzyme was added to assay plates (pre-stamped with compound) preincubated with USP28 for 30 minutes and then 5 μL of 2×Ub-Rh110 was added to assay plates. Plates were incubated stacked for 20 minutes at room temperature before 5 μL of stop solution was added (final concentration of 10 mM citric acid (Sigma, 251275-500G)). Fluorescence was read on the Envision (Excitation at 485 nm and Emission at 535 nm; Perkin Elmer) or on the PheraSTAR (Excitation at 485 nm and Emission at 535 nm; BMG Labtech).
(§1) For both the USP28 and USP25 assay formats Data were reported as percent inhibition compared with control wells based on the following equation: % inh=1−((FLU−AveLow)/(AveHigh−AveLow)) where FLU=measured Fluorescence, AveLow=average Fluorescence of no enzyme control (n=16), and AveHigh=average Fluorescence of DMSO control (n=16). IC50 values were determined by curve fitting of the standard 4 parameter logistic fitting algorithm included in the Activity Base software package: IDBS XE Designer Model205. Data is fitted using the Levenburg Marquardt algorithm.

Experiment [2] deals with USP25 (Homo sapiens (Human), UniProt Q9UHP3). Briefly: Ubiquitin-Rhodamine 110 Assay for USP25 Activity. In kind it is biochemical. Conditions: Ub-Rh110 substrate 25 nM, fluorescence readout. The protocol: The assay was performed in a final volume of 9 μL in assay buffer containing 20 mM Tris-HCl (pH 8.0, (1M Tris-HCl, pH 8.0 solution; Corning 46-031-CM)), 3 mM BME (2-Mercaptoethanol; Sigma 63689-25ML-F), 0.03% BGG ([…] filtered. Sigma, G7516-25G), and 0.01% Triton X-100 (Sigma, T9284-10L). Nanoliter quantities of 10-point, 3-fold serial dilution in DMSO was pre-dispensed into 1536 assay plates (Corning, #3724BC) for a final test concentration of 25 μM to 1.3 nM, top to lowest dose, respectively. Enzyme USP25, construct USP25-His6, (Boston Biochem E-546). Concentration and incubation times were optimized for the maximal signal-to-background while maintaining initial velocity conditions at a fixed substrate concentration. The final concentration of the enzyme in the assay was 75 pM. Final substrate (Ub-Rh110 Ubiquitin-Rhodamine 110, R&D Systems # U-555) concentration was 25 nM with [Ub-Rh110]<<Km. 3 μL of 2× enzyme was added to assay plates (pre-stamped with compound) preincubated with […] for 30 minutes and then 3 μL of 2×Ub-Rh110 was added to assay plates. Plates were incubated for 45 minutes at room temperature before addition of 3 μL of stop solution (final concentration of 10 mM citric acid (Sigma, 251275-500G)). Fluorescence was read on the Envision (Excitation at 485 nm and Emission at 535 nm; Perkin Elmer) or on the PheraSTAR (Excitation at 485 nm and Emission at 535 nm; BMG Labtech).
as §1

Bounds are passed on as bounds.

Sequence of USP28 (Q96RU2 whole entry): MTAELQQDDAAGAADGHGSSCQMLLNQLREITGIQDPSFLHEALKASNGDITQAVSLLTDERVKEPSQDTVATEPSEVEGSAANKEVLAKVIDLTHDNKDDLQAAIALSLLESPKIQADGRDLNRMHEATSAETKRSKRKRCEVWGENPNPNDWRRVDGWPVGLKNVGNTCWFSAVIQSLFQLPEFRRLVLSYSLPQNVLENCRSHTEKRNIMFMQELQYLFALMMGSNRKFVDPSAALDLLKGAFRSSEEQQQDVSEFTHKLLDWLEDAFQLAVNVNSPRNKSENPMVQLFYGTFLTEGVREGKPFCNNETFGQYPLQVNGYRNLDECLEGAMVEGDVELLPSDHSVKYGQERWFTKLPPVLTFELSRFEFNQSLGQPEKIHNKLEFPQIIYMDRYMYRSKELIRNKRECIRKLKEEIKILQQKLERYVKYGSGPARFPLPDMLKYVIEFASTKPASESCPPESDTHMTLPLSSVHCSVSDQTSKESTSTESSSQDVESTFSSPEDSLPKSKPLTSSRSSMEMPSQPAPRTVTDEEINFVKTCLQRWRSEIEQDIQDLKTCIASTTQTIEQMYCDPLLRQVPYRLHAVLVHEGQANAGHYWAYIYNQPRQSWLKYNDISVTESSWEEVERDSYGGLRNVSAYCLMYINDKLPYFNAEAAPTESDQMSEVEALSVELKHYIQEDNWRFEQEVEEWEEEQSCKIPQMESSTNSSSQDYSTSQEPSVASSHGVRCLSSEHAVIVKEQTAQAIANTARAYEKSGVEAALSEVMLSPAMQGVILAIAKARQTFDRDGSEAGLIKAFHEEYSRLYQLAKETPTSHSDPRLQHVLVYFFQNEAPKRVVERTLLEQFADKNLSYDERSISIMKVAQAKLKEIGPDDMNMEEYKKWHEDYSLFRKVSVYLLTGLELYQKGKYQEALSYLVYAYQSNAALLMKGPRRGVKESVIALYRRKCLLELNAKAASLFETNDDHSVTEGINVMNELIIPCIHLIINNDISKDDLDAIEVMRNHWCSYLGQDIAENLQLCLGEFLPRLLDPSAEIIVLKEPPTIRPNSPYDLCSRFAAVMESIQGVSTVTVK
Sequence of USP25 (Q9UHP3 whole entry): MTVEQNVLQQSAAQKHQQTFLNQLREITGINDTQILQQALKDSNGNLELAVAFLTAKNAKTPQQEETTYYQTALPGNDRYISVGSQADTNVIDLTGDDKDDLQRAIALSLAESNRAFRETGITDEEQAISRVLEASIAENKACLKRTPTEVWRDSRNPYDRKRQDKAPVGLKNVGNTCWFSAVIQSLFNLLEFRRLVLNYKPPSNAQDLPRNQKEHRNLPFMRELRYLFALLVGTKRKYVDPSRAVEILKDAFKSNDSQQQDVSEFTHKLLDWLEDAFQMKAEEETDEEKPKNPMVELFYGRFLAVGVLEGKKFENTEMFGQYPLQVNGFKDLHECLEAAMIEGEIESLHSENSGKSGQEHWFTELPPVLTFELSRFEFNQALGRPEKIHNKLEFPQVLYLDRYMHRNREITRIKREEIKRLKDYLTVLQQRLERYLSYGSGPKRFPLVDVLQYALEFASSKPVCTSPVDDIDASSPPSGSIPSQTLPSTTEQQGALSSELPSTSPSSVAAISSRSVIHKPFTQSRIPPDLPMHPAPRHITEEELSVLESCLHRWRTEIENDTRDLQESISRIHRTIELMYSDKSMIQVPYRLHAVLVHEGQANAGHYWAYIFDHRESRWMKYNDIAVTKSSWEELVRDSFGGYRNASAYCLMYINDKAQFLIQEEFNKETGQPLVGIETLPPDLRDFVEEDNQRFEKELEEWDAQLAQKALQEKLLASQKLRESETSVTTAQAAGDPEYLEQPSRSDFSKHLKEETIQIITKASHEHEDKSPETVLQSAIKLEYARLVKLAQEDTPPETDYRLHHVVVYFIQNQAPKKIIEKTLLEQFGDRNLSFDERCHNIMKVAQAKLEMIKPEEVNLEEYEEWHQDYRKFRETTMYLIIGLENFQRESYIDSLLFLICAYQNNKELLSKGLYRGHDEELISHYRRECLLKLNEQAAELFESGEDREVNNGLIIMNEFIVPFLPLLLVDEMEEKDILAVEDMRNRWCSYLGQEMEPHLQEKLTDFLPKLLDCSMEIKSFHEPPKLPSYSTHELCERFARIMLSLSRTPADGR

With `Cc1cnc2c(N)c(C(=O)NC[C@@H](C)c3ccc(N4CC5CCC(C4)N5)c(F)c3)sc2n1` (single isomer, unassigned) [Compound I-12], the 50% inhibitory concentration (IC50) lay in the range of 200 to 2000 nM in experiment [1] and 2000 to 10000 nM in experiment [2]. For the compound `Cc1cnc2c(N)c(C(=O)NC[C@H](C)c3ccc(N4CC5CCC(C4)N5)c(F)c3)sc2n1` (single isomer, unassigned) [Compound I-13], the figures for the concentration for half-maximal inhibition (IC50) in experiment [1] and in experiment [2] were 200 to 2000 nM and 2000 to 10000 nM, respectively. For the compound `Cc1cnc2c(N)c(C(=O)NC[C@@H](C)c3cc(F)c(N4CC5CCC(C4)N5)cc3F)sc2n1` (single isomer, unassigned) [Compound I-14], the IC50 in experiment [1] is 2000 to 10000 nM. On to `Cc1cnc2c(N)c(C(=O)NC[C@H](C)c3cc(F)c(N4CC5CCC(C4)N5)cc3F)sc2n1` (single isomer, unassigned) [Compound I-15], for which the IC50 in experiment [1] was less than 200 nM; in experiment [2], 2000 to 10000 nM.

As to `Cc1cnc2c(N)c(C(=O)NC[C@@H](C)c3ccc(N4CC5CCC(C4)N5)cc3F)sc2n1` (single isomer, unassigned) [Compound I-16], the IC50 in experiment [1] and in experiment [2] was 200 to 2000 nM each time.

As to `Cc1cnc2c(N)c(C(=O)NC[C@H](C)c3ccc(N4CC5CCC(C4)N5)cc3F)sc2n1` (single isomer, unassigned) [Compound I-17], the IC50 in experiment [1] lay in the range of 200 to 2000 nM; in experiment [2], 2000 to 10000 nM. The matching figures for `Cc1cnc2c(N)c(C(=O)NC[C@@H](C)c3ccc(N4CC5CCC(C4)N5)c(C#N)c3)sc2n1` (single isomer, unassigned) [Compound I-18]: 2000 to 10000 nM and 2000 to 10000 nM. Taken in the same sequence, the figures for `Cc1cnc2c(N)c(C(=O)NC[C@H](C)c3ccc(N4CC5CCC(C4)N5)c(C#N)c3)sc2n1` (single isomer, unassigned) [Compound I-19] were 2000 to 10000 nM and 2000 to 10000 nM. Taken in the same sequence, the figures for `Cc1cnc2c(N)c(C(=O)NC[C@@H](C)c3cc(F)c(N4CC5CNCC(C4)O5)cc3F)sc2n1` (single isomer, unassigned) [Compound I-21] were 200 to 2000 nM and 200 to 2000 nM.

For `Cc1cnc2c(N)c(C(=O)NC[C@H](C)c3cc(F)c(N4CC5CNCC(C4)O5)cc3F)sc2n1` (single isomer, unassigned) [Compound I-22], the IC50 in experiment [1] and in experiment [2] was 200 to 2000 nM each time.

In experiment [1], `Cc1cnc2c(N)c(C(=O)NCCc3ccc(N4CCNCC4)cc3)sc2n1` [Compound I-1, 7-Amino-3-methyl-N-(4-(piperazin-1-yl)phenethyl)thieno[2,3-b]pyrazine-6-carboxamide] displayed an IC50 of 200 to 2000 nM. Still for that read-out and setting: to `Cc1cnc2c(N)c(C(=O)NCCc3ccc(N4CCNCC4)c(Cl)c3)sc2n1` [Compound I-2] belongs 200 to 2000 nM. In turn, `Cc1cnc2c(N)c(C(=O)NCCc3ccc(N4CC5CCC(C4)N5)c(Cl)c3)sc2n1` [Compound I-3, N-(4-(3,8-diazabicyclo[3.2.1]octan-3-yl)-3-chlorophenethyl)-7-amino-3-methylthieno[2,3-b]pyrazine-6-carboxamide] displayed an IC50 in experiment [1] of less than 200 nM.

Consider `Cc1cnc2c(N)c(C(=O)NCCc3cc(F)c(N4CCNCC4)cc3F)sc2n1` [Compound I-4], for which the IC50 in experiment [1] lay within 200 to 2000 nM; in experiment [2], 2000 to 10000 nM. The matching figures for `Cc1cnc2c(N)c(C(=O)NCCc3ccc(N4CC5CCC(C4)N5)c(F)c3)sc2n1` [Compound I-6]: less than 200 nM and less than 200 nM. Turning to `Cc1cnc2c(N)c(C(=O)NCCc3cc(F)c(N4CC5CCC(C4)N5)cc3F)sc2n1` [Compound I-7, N-(4-(3,8-diazabicyclo[3.2.1]octan-3-yl)-2,5-difluorophenethyl)-7-amino-3-methylthieno[2,3-b]pyrazine-6-carboxamide], the half-maximal inhibitory concentration (IC50) in experiment [1] was less than 200 nM; in experiment [2], 200 to 2000 nM.

For `Cc1cnc2c(N)c(C(=O)NCCc3ccc(N4CC5CCC(C4)N5)c(C#N)c3)sc2n1` [Compound I-9], the IC50 in experiment [1] and in experiment [2] was 200 to 2000 nM each time. `Cc1cnc2c(N)c(C(=O)NCCc3ccc(N4CC5CCC(C4)N5)cc3F)sc2n1` [Compound I-10]: the values for the IC50 in experiment [1] and in experiment [2] were less than 200 nM and 200 to 2000 nM, respectively.

Take `Cc1cnc2c(N)c(C(=O)NCCc3c(F)cc(N4CC5CCC(C4)N5)cc3F)sc2n1` [Compound I-11]: the IC50 in experiment [1] and in experiment [2] was 200 to 2000 nM each time. In the case of `Cc1cnc2c(N)c(C(=O)NCCc3c(F)cc(N4CC5CNCC(C4)O5)cc3F)sc2n1` [Compound I-20], the IC50 in experiment [1] and in experiment [2] was less than 200 nM each time.

`CCc1cnc2c(N)c(C(=O)NCCc3ccc(N4CC5CCC(C4)N5)cc3)sc2n1` [Compound I-23]: the IC50 is 2000 to 10000 nM in experiment [1] and 200 to 2000 nM in experiment [2].
